Experimental data taken from PMC10447463, “Data-mining unveils structure–property–activity correlation of viral infectivity enhancing self-assembling peptides” (Nature Communications, 2023).
Several values for one entry are separate records, joined by “and”; a condition that tells them apart may be missing. Equal values may be shown once. Read-outs that look alike come from different tables or passages of the source.

Assays:
[1] = Zeta-potential measurement; assay type: physicochemical; settings: for Zeta pot. / mV: 1 mg/mL in PBS pH 7.4 from 10 mg/mL DMSO stock, 1 d RT, 60 µL diluted in 600 µL 1 mM KCl, Zetasizer Nano ZS, Smoluchowski, mean of triplicate
Outline: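 Surface charge of aggregated peptides: 1 mg/mL solutions in PBS (pH 7.4) incubated 1 d at RT, diluted into 1 mM KCl just before reading. Electrophoretic mobility converted to zeta potential by the Smoluchowski formula; triplicate measurements from two separate experiments averaged.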

[2] = Turbidity, derived count rate of scattered light; assay type: physicochemical; settings: for Count Rate: derived count rate of scattered light (turbidity); for Log10 Count Rate: turbidity, derived count rate of scattered light, data of Figure 2D
[3] = Turbidity, derived count rate of scattered light; assay type: physicochemical; settings: for Count Rate / kcps: derived count rate of scattered light at 633 nm, 173°, from zeta-potential measurement, 0.1 mg/mL in 1 mM KCl after 1 d at 1 mg/mL in PBS, turbidity / microscopic aggregation, mean of triplicate
Outline: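 One-day room-temperature aggregation at 1 mg/mL in PBS (pH 7.4) preceded measurement; samples then went into 1 mM KCl. Triplicates per sample, two independent experiments averaged.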

[4] = assay type: physicochemical; parameters: key to Fibril / Fibril Formation / TEM 2cat / Fibril: 1 = fibrils present; 0 non-fibrillar structures; settings: for Fibril / Fibril Formation: 1 mg/mL, uranyl acetate stain, qualitative
[5] = zeta-potential of peptide, source data of Figure 2C
[6] = zeta-potential of the peptide assemblies, mean, Figure 3A source data
[7] = Log10 of derived count rate of scattered light (turbidity)
[8] = logarithm of count rate in kcps
[9] = turbidity, Log10 of derived count rate of scattered light, Figure 3A source data
[10] = turbidity, log10 of derived count rate of scattered light
[11] = TEM, 1 = fibrils present, 0 = non-fibrillar
[12] = TEM, 1 = fibrils present, 0 = non-fibrillar structures
[13] = category: fibrils present or non-fibrillar
[14] = zeta potential of peptide assemblies
[15] = log10 of derived count rate of scattered light (turbidity)
[16] = Fig S10 panel D, fibril category by TEM
[17] = FigS12 panel A, fibril category by TEM

Substance	Zeta-Pot. [1]	Zeta-Potential / mV [1, 5] [mV]	Zeta-Potential / mV [1, 6] [mV]	Count Rate [2]	Log10 Count Rate [2]	Log10 Count Rate [3, 7]	Count Rate / kcps [3]	Log10 Count Rate [3, 8]	Log10 Count Rate [3, 9]	Fibril / Fibril Formation ([4]; TEM)	Fibril [4, 11]	Fibril [4, 12]	TEM 2cat [4, 13]	Fibril ([4]; Fig S10 panel E)	Zeta-Pot. [1, 14]	Log10 Count Rate [3, 15]	TEM 2cat [4, 16]	Fibril ([4]; FigS12 panel B, TEM)	other results
CKFKQFFNM	15.2	15.05	15.2	27264.3	4.436	4.436	27264 ± 5488 kcps and 27264 kcps	4.436	4.436	1	1	1	1	–	–	–	–	–	Log10 Count Rate [3, 10]: 4.436; TEM 2cat ([4]; Fig S10 panel D): 1
CKFKQFFNMWQ	8.563	10.915	8.56	8210	3.914	3.914	8210 kcps	–	3.914	1	1	1	1	1	–	–	–	–	Log10 Count Rate [3, 10]: 3.914; TEM 2cat ([4]; Fig S10 panel D): 1
CKIKIQI	–	13.2	12.8	2432.9	3.386	3.386	2432 ± 1342 kcps and 2433 kcps	3.386	3.386	1	1	1	1	1	12.8	3.386	1	–	Zeta pot. / mV [1]: 12.8 mV; Zeta Count Rate ([3]; mean of the 3 replicates): 2432.9 kcps; Zeta Count Rate ([3]; replicate 2): 1640.5 kcps; Zeta Count Rate ([3]; replicate 3): 4323.3 kcps
CKIKIQINM	–	14.3	16.83	4228	3.626	3.626	4228 kcps	–	3.626	1	1	1	1	1	16.83	3.626	1	–	–
CKIKIQINMW	18.3	18.43	18.3	4915	3.692	3.692	4915 kcps	–	3.692	1	1	1	1	–	–	3.692	1	–	–
CKIKIQIRGD	–	7.157	7.16	5777	3.762	3.762	5777 kcps	–	3.762	1	1	1	1	1	7.157	3.762	1	–	–
CKIKQII	–	5.568	-3.83	74.6	1.873	1.873	74 ± 27 kcps and 75 kcps	1.873	1.873	1	1	1	–	1	-3.83	1.873	1	1	Zeta pot. / mV [1]: -3.83 mV; TEM 2cat [4, 17]: 1
CKIKQIINMWQ	–	10.55	13.4	8317	3.92	3.92	8317 kcps	3.92	3.92	1	1	1	1	1	13.4	3.92	1	–	–
CKIKQIIRGD	–	13.2	13.2	3495	3.544	3.544	3495 kcps	–	3.544	0	0	0	–	–	13.2	3.544	–	0	–
CKIW	-3.71	-2.772	-3.71	3.2	0.5051	0.5051	3 kcps	–	0.5051	0	0	0	–	0	–	0.5051	0	0	TEM 2cat [4, 17]: 0
CQFQFQF	–	-25.37	-24.8	7929	3.899	3.899	7929 kcps	3.899	3.899	1	1	1	1	–	-24.8	3.899	1	–	–
CSISIQI	–	-26.07	-25.93	10241.1	4.01	4.01	10241 kcps	4.01	4.01	1	1	1	–	1	-25.93	4.01	1	1	TEM 2cat [4, 17]: 1
CSISIQINM	–	-21.18	-19.4	3291	3.517	3.517	3291 kcps	–	3.517	1	1	1	1	1	-19.4	3.517	1	–	–
EIEIQINM	-23.33	-21.58	-23.33	134	2.127	2.127	134 kcps	–	2.127	1	1	1	–	1	–	2.127	1	1	TEM 2cat [4, 17]: 1
